# In ChEMBL document CHEMBL2086231, “Novel pleuromutilin derivatives as antibacterial agents: synthesis, biological evaluation and molecular docking studies” (2012):
# Experiments:
# Assay type in all cases: functional
# Staphylococcus aureus [1] = assay: Antibacterial activity against methicillin-sensitive Staphylococcus aureus isolate cpu1344 after 18 to 20 hrs by agar dilution method
# Staphylococcus aureus [2] = assay: Antibacterial activity against methicillin-resistant Staphylococcus aureus isolate cpu0446 after 18 to 20 hrs by agar dilution method
# [3] = test system: Staphylococcus epidermidis; assay: Antibacterial activity against methicillin-resistant Staphylococcus epidermidis isolate cpu2736 after 18 to 20 hrs by agar dilution method
# Staphylococcus aureus [4] = assay: Antibacterial activity against methicillin-resistant Staphylococcus aureus isolate cpu3256 after 18 to 20 hrs by agar dilution method
# Staphylococcus aureus [5] = assay: Antibacterial activity against methicillin-sensitive Staphylococcus aureus isolate cpu1044 after 18 to 20 hrs by agar dilution method
# [6] = test system: Staphylococcus epidermidis; assay: Antibacterial activity against methicillin-resistant Staphylococcus epidermidis isolate cpu3569 after 18 to 20 hrs by agar dilution method
# [7] = test system: Staphylococcus epidermidis; assay: Antibacterial activity against methicillin-sensitive Staphylococcus epidermidis isolate cpu0347 after 18 to 20 hrs by agar dilution method
# Staphylococcus aureus [8] = assay: Antibacterial activity against methicillin-sensitive Staphylococcus aureus isolate cpu0587 after 18 to 20 hrs by agar dilution method
# [9] = test system: Staphylococcus epidermidis; assay: Antibacterial activity against methicillin-resistant Staphylococcus epidermidis isolate cpu2623 after 18 to 20 hrs by agar dilution method
# [10] = test system: Staphylococcus epidermidis; assay: Antibacterial activity against methicillin-sensitive Staphylococcus epidermidis isolate cpu2089 after 18 to 20 hrs by agar dilution method
# Staphylococcus aureus [11] = assay: Antibacterial activity against methicillin-resistant Staphylococcus aureus isolate cpu1098 after 18 to 20 hrs by agar dilution method
# [12] = test system: Staphylococcus epidermidis; assay: Antibacterial activity against methicillin-sensitive Staphylococcus epidermidis isolate cpu1561 after 18 to 20 hrs by agar dilution method
# [13] = test system: Staphylococcus epidermidis; assay: Antibacterial activity against methicillin-sensitive Staphylococcus epidermidis isolate cpu0315 after 18 to 20 hrs by agar dilution method
# Staphylococcus aureus [14] = assay: Antibacterial activity against methicillin-resistant Staphylococcus aureus isolate cpu0887 after 18 to 20 hrs by agar dilution method
# [15] = test system: Staphylococcus epidermidis; assay: Antibacterial activity against methicillin-resistant Staphylococcus epidermidis isolate cpu3889 after 18 to 20 hrs by agar dilution method
# Staphylococcus aureus [16] = assay: Antibacterial activity against methicillin-sensitive Staphylococcus aureus isolate cpu0211 after 18 to 20 hrs by agar dilution method
# Streptococcus pyogenes = assay: Antibacterial activity against Streptococcus pyogenes
# Staphylococcus aureus [17] = assay: Antibacterial activity against Staphylococcus aureus
# Staphylococcus aureus [18] = assay: Ratio of amoxicillin MIC to compound MIC for methicillin-resistant Staphylococcus aureus isolate cpu3256
# Staphylococcus aureus [19] = assay: Ratio of amoxicillin MIC to compound MIC for methicillin-resistant Staphylococcus aureus isolate cpu0446
# Staphylococcus aureus [20] = assay: Ratio of tiamulin MIC to compound MIC for methicillin-resistant Staphylococcus aureus isolate cpu0446
# Staphylococcus aureus [21] = assay: Ratio of amoxicillin MIC to compound MIC for methicillin-resistant Staphylococcus aureus isolate cpu1098
# Staphylococcus aureus [22] = assay: Ratio of tiamulin MIC to compound MIC for methicillin-resistant Staphylococcus aureus isolate cpu0887
# Staphylococcus aureus [23] = assay: Ratio of tiamulin MIC to compound MIC for methicillin-resistant Staphylococcus aureus isolate cpu3256
# Staphylococcus aureus [24] = assay: Ratio of amoxicillin MIC to compound MIC for methicillin-resistant Staphylococcus aureus isolate cpu0887
# Staphylococcus aureus [25] = assay: Ratio of tiamulin MIC to compound MIC for methicillin-resistant Staphylococcus aureus isolate cpu1098
# [26] = test system: Staphylococcus epidermidis; assay: Ratio of amoxicillin MIC to compound MIC for methicillin-sensitive Staphylococcus epidermidis isolate cpu1561
# Staphylococcus aureus [27] = assay: Ratio of amoxicillin MIC to compound MIC for methicillin-sensitive Staphylococcus aureus isolate cpu0211
# Staphylococcus aureus [28] = assay: Ratio of amoxicillin MIC to compound MIC for methicillin-sensitive Staphylococcus aureus isolate cpu0587
# Staphylococcus aureus [29] = assay: Ratio of amoxicillin MIC to compound MIC for methicillin-sensitive Staphylococcus aureus isolate cpu1344
# Staphylococcus aureus [30] = assay: Ratio of amoxicillin MIC to compound MIC for methicillin-sensitive Staphylococcus aureus isolate cpu1044
# [31] = test system: Staphylococcus epidermidis; assay: Ratio of amoxicillin MIC to compound MIC for methicillin-sensitive Staphylococcus epidermidis isolate cpu0347
# [32] = test system: Staphylococcus epidermidis; assay: Ratio of amoxicillin MIC to compound MIC for methicillin-sensitive Staphylococcus epidermidis isolate cpu2089
# [33] = test system: Staphylococcus epidermidis; assay: Ratio of amoxicillin MIC to compound MIC for methicillin-sensitive Staphylococcus epidermidis isolate cpu0315
SMILES,MIC (Staphylococcus aureus [1]) [µg/mL],MIC (Staphylococcus aureus [2]) [µg/mL],MIC [3] [µg/mL],MIC (Staphylococcus aureus [4]) [µg/mL],MIC (Staphylococcus aureus [5]) [µg/mL],MIC [6] [µg/mL],MIC [7] [µg/mL],MIC (Staphylococcus aureus [8]) [µg/mL],MIC [9] [µg/mL],MIC [10] [µg/mL],MIC (Staphylococcus aureus [11]) [µg/mL],MIC [12] [µg/mL],MIC [13] [µg/mL],MIC (Staphylococcus aureus [14]) [µg/mL],MIC [15] [µg/mL],MIC (Staphylococcus aureus [16]) [µg/mL],also measured
C=C[C@]1(C)C[C@@H](OC(=O)CSCc2csc(NC(=O)CNC3CCCCC3)n2)[C@]2(C)[C@H](C)CC[C@]3(CCC(=O)[C@H]32)[C@@H](C)[C@@H]1O,0.5,0.5,1,0.5,0.5,0.5,0.5,0.25,0.25,0.25,0.25,8,1,0.5,1,0.25,
C=C[C@]1(C)C[C@@H](OC(=O)CS[C@@H]2C[C@H]3CC[C@@H](C2)N3C)[C@]2(C)[C@H](C)CC[C@]3(CCC(=O)[C@H]32)[C@@H](C)[C@@H]1O [RETAPAMULIN],,,,,,,,,,,,,,,,,MIC (Streptococcus pyogenes): 0.016 µg/mL; MIC (Staphylococcus aureus [17]): 0.12 µg/mL
C=C[C@]1(C)C[C@@H](OC(=O)CSCc2csc(NC(=O)CN(CCC)CCC)n2)[C@]2(C)[C@H](C)CC[C@]3(CCC(=O)[C@H]32)[C@@H](C)[C@@H]1O,1,0.5,2,1,0.5,4,0.5,0.5,0.5,0.5,1,4,8,0.5,2,0.5,
C=C[C@]1(C)C[C@@H](OC(=O)CSCc2csc(NC(=O)CN3CCCC3)n2)[C@]2(C)[C@H](C)CC[C@]3(CCC(=O)[C@H]32)[C@@H](C)[C@@H]1O,0.25,0.25,0.5,0.25,0.25,0.5,0.25,0.125,0.5,0.125,0.25,0.5,2,0.5,0.25,0.125,
C=C[C@]1(C)C[C@@H](OC(=O)CSCc2csc(N)n2)[C@]2(C)[C@H](C)CC[C@]3(CCC(=O)[C@H]32)[C@@H](C)[C@@H]1O,0.125,0.25,0.125,0.5,2,0.125,0.125,2,0.125,0.125,0.5,0.125,0.125,0.0625,0.125,0.5,Ratio (Staphylococcus aureus [18]): 4; Ratio (Staphylococcus aureus [19]): 4; Ratio (Staphylococcus aureus [20]): 4; Ratio (Staphylococcus aureus [21]): 4; Ratio (Staphylococcus aureus [22]): 4; Ratio (Staphylococcus aureus [23]): 4; Ratio (Staphylococcus aureus [24]): 4; Ratio (Staphylococcus aureus [25]): 4
C=C[C@]1(C)C[C@@H](OC(=O)CSCc2csc(NC(=O)CN3CCCCC3)n2)[C@]2(C)[C@H](C)CC[C@]3(CCC(=O)[C@H]32)[C@@H](C)[C@@H]1O,0.0625,0.5,0.0625,0.25,0.125,0.0625,0.0625,2,0.0625,0.125,0.25,0.0625,0.0625,0.0625,0.0625,0.125,Ratio [26]: 8; Ratio (Staphylococcus aureus [27]): 8; Ratio (Staphylococcus aureus [28]): 8; Ratio (Staphylococcus aureus [29]): 8; Ratio (Staphylococcus aureus [30]): 8; Ratio [31]: 8; Ratio [32]: 8; Ratio [33]: 8
